This note sets out measurements from US9801956B2, “PSMA-targeted NIR dyes and their uses” (On Target Laboratories, LLC, priority 2015, dated 2017).

This experiment addresses T1, PSMA (Homo sapiens, UniProt Q04609).
T1 construct: PSMA-positive 22Rv1 human prostate cancer cells; endogenous in cells; host or cells: 22Rv1 human prostate cancer cells
The experiment in a line: Relative binding affinity of DUPA-NIR conjugates versus 100 nM DUPA-FITC (14) on PSMA-positive 22Rv1 human prostate cancer cells, flow cytometry. Conditions: PSMA-positive 22Rv1 cells, 1 h at 37° C., 100 nM DUPA-FITC competitor. The method, then: FIG. 3—Relative binding affinities of DUPA-NIR conjugates 1-9 with respect to DUPA-FITC (14). PSMA-positive 22Rv1 human prostate cancer cells were incubated for 1 h at 37° C. in the presence of 100 nM DUPA-FITC with increasing concentrations of DUPA-NIR conjugates. […] Cell bound fluorescence was assayed as using flow cytometry.
FIG. 6—Relative binding affinities of DUPA-NIR conjugates with aromatic amino acids linkers with respect to DUPA-FITC (14). PSMA-positive 22Rv1 human prostate cancer cells were incubated for 1 h at 37° C. in the presence of 100 nM DUPA-FITC with increasing concentrations of DUPA-NIR conjugates. […] Cell bound fluorescence was assayed as using flow cytometry.
FIG. 14—Relative binding affinities of DUPA-NIR conjugates with respect to DUPA-FITC (14). PSMA-positive 22Rv1 human prostate cancer cells were incubated for 1 h at 37° C. in the presence of 100 nM DUPA-FITC with increasing concentrations of DUPA-NIR conjugates. […] Cell bound fluorescence was assayed as using flow cytometry.
PSMA-positive 22Rv1 human prostate cancer cells were incubated for 1 h at 37° C. in the presence of 100 nM DUPA-FITC with increasing concentrations of DUPA-NIR conjugates. […] Cell bound fluorescence was assayed as using flow cytometry.
FIG. 23—Relative binding affinities of DUPA-NIR conjugates with respect to DUPA-FITC (14). […] Cell bound fluorescence was assayed as using flow cytometry.
FIG. 31—Relative binding affinities of DUPA-NIR conjugates with respect to DUPA-FITC (14). […] Cell bound fluorescence was assayed as using flow cytometry.
FIG. 36—Relative binding affinities of PSMA-targeted NIR conjugates with respect to DUPA-FITC (14). […] Cell bound fluorescence was assayed as using flow cytometry.
FIG. 3 Relative binding affinities of DUPA-NIR conjugates 1-9 with respect to DUPA-FITC (14). […] Cell bound fluorescence was assayed as using flow cytometry.
FIG. 24: Relative binding affinities of DUPA-NIR conjugates with respect to DUPA-FITC (14). […] Cell bound fluorescence was assayed as using flow cytometry. […]

T1 sequence (Q04609 whole entry): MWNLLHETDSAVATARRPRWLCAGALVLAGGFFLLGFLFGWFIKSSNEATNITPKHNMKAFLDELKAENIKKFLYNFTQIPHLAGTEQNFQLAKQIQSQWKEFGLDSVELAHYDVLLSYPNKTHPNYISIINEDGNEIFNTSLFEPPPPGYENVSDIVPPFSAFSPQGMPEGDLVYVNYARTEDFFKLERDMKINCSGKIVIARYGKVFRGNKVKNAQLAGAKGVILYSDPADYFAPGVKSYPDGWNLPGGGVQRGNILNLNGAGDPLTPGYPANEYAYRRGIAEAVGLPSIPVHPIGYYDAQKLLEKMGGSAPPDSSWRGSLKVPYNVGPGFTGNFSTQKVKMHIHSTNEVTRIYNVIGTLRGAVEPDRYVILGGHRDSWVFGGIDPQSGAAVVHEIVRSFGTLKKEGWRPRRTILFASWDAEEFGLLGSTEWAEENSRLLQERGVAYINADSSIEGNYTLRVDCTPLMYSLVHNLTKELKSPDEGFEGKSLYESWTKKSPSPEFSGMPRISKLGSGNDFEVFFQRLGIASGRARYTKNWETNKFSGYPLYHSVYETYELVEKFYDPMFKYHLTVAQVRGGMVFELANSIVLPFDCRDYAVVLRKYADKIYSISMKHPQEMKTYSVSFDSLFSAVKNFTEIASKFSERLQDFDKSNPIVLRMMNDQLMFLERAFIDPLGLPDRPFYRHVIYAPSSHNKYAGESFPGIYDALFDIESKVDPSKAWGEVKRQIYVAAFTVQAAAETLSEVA

Compound `CC1(C)C(=CC=C2CCOC(C=CC3=[N+](CCCCS(=O)(=O)[O-])c4ccc(S(=O)(=O)O)cc4C3(C)C)=C2c2ccc(C(=O)NCCNC(=O)C(Cc3ccccc3)NC(=O)CCCCCCCNC(=O)CCC(NC(=O)NC(CCC(=O)O)C(=O)O)C(=O)O)cc2)N(CCCCS(=O)(=O)O)c2ccc(S(=O)(=O)O)cc21` (stereo not drawn) [Compound 62] came in with a Kd of 141 nM.

Regarding `CC1(C)C(=CC=C2CCCC(C=CC3=[N+](CCCCS(=O)(=O)[O-])c4ccccc4C3(C)C)=C2SCC(NC(=O)C(Cc2ccccc2)NC(=O)C(Cc2ccccc2)NC(=O)CCCCCCCNC(=O)CCC(NC(=O)NC(CCC(=O)O)C(=O)O)C(=O)O)C(=O)O)N(CCCCS(=O)(=O)O)c2ccccc21` (stereo not drawn) [Compound 64], the Kd turned out to be 319 nM.

For the compound `CC1(C)C(=CC=C2CCCC(C=CC3=[N+](CCCCS(=O)(=O)[O-])c4ccccc4C3(C)C)=C2Oc2ccc(CC(NC(=O)C(CCCNC(=N)N)NC(=O)C(Cc3ccccc3)NC(=O)CCCCCCCNC(=O)CCC(NC(=O)NC(CCC(=O)O)C(=O)O)C(=O)O)C(=O)O)cc2)N(CCCCS(=O)(=O)O)c2ccccc21` (stereo not drawn) [Compound 65], the affinity, expressed as Kd, was 983 nM.
